For assay [1], the system named is Bone marrow derived mast cells (BMMC). Description: Cell death assay (Trypan blue exclusion) in BMMC. The class given is cell-based. As to conditions: for cell death: 24 hours. As for the experimental part:
Cytotoxicity assays were performed as described in Materials and Methods. In Figures 1A to 1C, BMMCs were incubated with either SLF (500ng/ml in all cases) (circles) or IL-3 (25% WEHI-3 conditioned medium in all cases) (squares) with the indicated amounts of ketotifen (Figure 1A), econazole (Figure 1B) or Ni^2+ (Figure 1C). In Figure 1D, BMMCs were incubated with IL-3, and the indicated amounts of SLF. Plotted circles also included 2.5mM Ni^2+ and plotted squares included no Ni^2+. In Figure 1E, BMMCs were coated with IgE anti-DNP monoclonal SPE-7, then incubated with IL-3 plus the indicated amounts of DNP-HSA (Ag), with 5µM econazole (circles) or without econazole (squares). In Figure 1F, BMMCs were incubated with IL-3 plus the indicated amounts of Substance P, with 5µM econazole (circles) or without econazole (squares). In all cases, the proportion of dead cells was determined after 24 hours in culture by counting cells that could or could not exclude Trypan blue. Error bars represent the standard error determined from triplicate measurements.
(§1) Cells. Bone marrow derived mast cells (BMMC) were generated as described previously (Berger et al., 1994). They were cultured in OPTI-MEM (Gibco, Burlington, ON) supplemented with 10% heat-inactivated FBS and 2% WEHI-3 supernatant as a source of IL-3. 32D-kit cells (gift from Dr. Mark Minden, Ontario Cancer Institute) are an IL-3-dependent myelomonocytic cell line expressing c-kit (Hu et al., 1995). 32D-kit cells were grown in RPMI (Gibco) supplemented with 10% heat-inactivated FBS, 2% WEHI-3 supematant, and 1 mg/ml G418 (Gibco). The p815 cell line is a murine mastocytoma cell line. P815 cells were grown in RPMI supplemented with 10% heat-inactivated FBS. Bcl-2 gp+e NIH 3T3 packaging cells were grown in Dulbecco's modified Eagle's medium (DMEM - Gibco) and supplemented with 10% FBS and 2 µg/ml puromycin (Sigma, St. Louis, Mo). All cell cultures also contained 55µM β-mercaptoethanol and antibiotics (both Sigma). SK-BR3, MDA-MB231 and MCF-7 cells were obtained from ATCC. SK-BR3 and MDA-MB231 cells were cultured in RPMI medium supplemented with 10% heat inactivated fetal bovine serum. MCF-7 cells were cultured in DMEM medium supplemented with 10% heat inactivated fetal bovine serum and 10 µg/ml human insulin (Sigma).
(§2) Cell death assays. 2.5 X 10^4 BMMCs, 32D-kit or P815 cells were placed in 96-well flat bottom plates in a volume of 0.1 ml RPMI containing 0.5% FBS. Cells were supplemented with either SLF, Substance P or IL3 plus Ca^2+ channel blocker. In the case of adding IgE, cells were incubated with 10 µg/ml SPE-7 for 45 minutes at 4°C followed by 3 washes with RPMI, 0.5% FBS before plating in 96 well plates and adding 100 ng/ml DNP-HSA. The proportion of dead cells was determined after 18 or 24 hours in culture by counting cells that could or could not exclude Trypan blue.

A further assay has as its system 32D-kit-Bcl-2 cells. Description: Cell death assay (Trypan blue exclusion) in Bcl-2 over-expressing 32D-kit cells. To be noted: SLF plus 2.5, 5 or 10µM econazole; 18 hours; Figure 7B. The format is cell-based. On the procedure:
Figures 6A and 6B show the effect of ionomycin on apoptosis induced by SLF and Ca^2+ influx blacker. In Figure 6A, 32D-kit cells were incubated for 18 hours with 5µM econazole and the indicated amounts of ionomycin in the presence of either SLF (circles) or IL-3 (squares). In Figure 6B, 32D-kit-Bcl-2 cells were incubated for 18 hours with 5µM econazole and the indicated amounts of ionomycin in the presence of either SLF (circles) or IL-3 (squares). The proportion of dead cells was determined by Trypan Blue exclusion.
In additional cultures, IL-3 alone or no factor was added and cell viability was similarly tested. The effect on cell viability of adding 25 or 250 µM YVAD-CHO was also evaluated in separate cultures in which no additional factors were added.
Generation of Bcl-2 over-expressing 32D-kit cells. gp + e bcl-2 retroviral producer cells were a gift from Dr. Y. Ben-David (Toronto) and contain an LXSN-based retroviral vector expressing genes for both puromycin resistance and murine bcl-2. For infection, a confluent layer of gp + e packaging cells were co-cultured with 32D-kit cells for 24 hours. Non-adherent 32D-kit cells were then removed, cultured for 48 hours and then selected for bcl-2 over-expressing cells in the presence of 2µg/ml puromycin.
as §2

The test system of a further assay is BMMC. Description: Analysis of DNA content (propidium iodide, flow cytometry) in BMMC. To be noted: 24 hours. The format is cell-based. On the procedure:
Analysis of DNA content. 1.25 X 10^6 cells were incubated for 18 or 24 hours as described above. Cells were spun down and resuspended in Vindelov's reagent: 3.4mM Tris - pH 8, 75 µM Propidium Iodide (from Sigma), 0.1% NP-40, 700 u/l RNAse (Sigma) and 10 mM NaCl. Cells were then analysed by flow cytometry.
For orientation: A flow cytometer gives signals particle by particle.

Another assay relates to SK-BR3 cells. As to the kind of experiment: Cell death (Trypan blue exclusion) in SK-BR3 breast cancer cells. The format is cell-based, human. As to conditions: with or without 10ng/ml EGF; 18 hours; Figure 9A. As for the experimental part: as §1
The subject of the next assay is MDA-MB-231 cells. As to the kind of experiment: Cell death in autocrine stimulated MDA-MB-231 breast cancer cells. The class given is cell-based, human. To be noted: 20µM econazole; Figure 9B. On the procedure:
Bar 1: control; Bar 2: 20µM econazole; Bar 3: 20µM econazole and 10µM YVAD-CHO (ICE inhibitor); Bar 4: 20µM econazole and 100 µM YVAD-CHO; Bar 5: 20µM econazole and 0.1 nM ionomycin (calcium ionophore); Bar 6: 20µM econazole and 10 nM ionomycin; Bar 7: 20µM econazole and 1 µM ionomycin; Bar 8: 20µM econazole and 10 µM oleic acid (PLC activation inhibitor); and Bar 9: 20µM econazole and 100 µM oleic acid.
as §1
The MDA-MB-231 cell line is a highly anaplastic carcinoma of the breast. it too is tumorigenic in nude mice but expresses only low levels of erbB2. However it is FGF^R positive and is stimulated in an autocrine fashion by bFGF (el Yazidi et al., 1995). Experiments were carried out to determine the susceptibility of MDA-MB-231 cells to a Ca^2+ influx blocker and the influence of oleic acid, ionomycin, and YVAD-CHO on induction of cell death by the blocker. The results are summarized together in Figure 9B.

For another assay, the system named is MCF-7 cells. As to the kind of experiment: Cell death (Trypan blue exclusion) in MCF-7 cells. The class given is cell-based, human. To be noted: with versus without 10ng/ml EGF; 18 hours; Figure 10. On the procedure: 2.5 X 10^4 MCF-7 cells were incubated in the wells of a 96-well plate in 0.1ml DMEM plus 0.5% FBS with (circles) or without (squares) 10ng/ml EGF and with the concentrations of econazole indicated for 18 hours. The proportion of dead cells was evaluated by Trypan Blue exclusion after 18 hours in culture.
as §1, with “MCF-7 cells were cultured in DMEM medium supplemented with 10% heat inactivated fetal bovine serum and 10 µg/ml human insulin (Sigma).” left out

In a further assay the test system is NS1/Ag4 myeloma cells. To be noted: at 1µg/ml; cited from earlier work.

Structures are written as SMILES.

`Clc1ccc(COC(Cn2ccnc2)c2ccc(Cl)cc2Cl)cc1` (centres unmarked) [econazole]: the cell death result in assay [1] (co-incubated with SLF (500ng/ml), Figures 1A-C) is given as “converted to a death signal”; in assay [1] (stimulated with IgE plus antigen (DNP-HSA), with IL-3, 5µM econazole in Figure 1E), “cell death is induced”; in assay [1] (stimulated with Substance P, IL-3, 5µM econazole), “cell death is also induced”; with SK-BR3 cells, “equivalent levels of death”. Also, in assay [1] (econazole alone, without antigenic stimulation), the cell viability result is reported as “no effect on cell viability”. The “protection by Bcl-2 overexpression from induction of apoptosis” value with 32D-kit-Bcl-2 cells is reported as “fails to protect”. For the same compound, the “Sub G1 Content (%) 8µM econazole” value with BMMC (8µM econazole plus IL-3 (25% WEHI conditioned media)) was 20.4%; with BMMC (8µM econazole plus SLF (500ng/m.)), 66.8%. Moreover, the apoptosis entry with MDA-MB-231 cells is recorded as “undergo apoptosis”. For the same compound, the “sensitivity to cell death” value with MCF-7 cells is listed as “more sensitive”. For the same compound, the “cell viability and cell numbers” value in the assay on NS1/Ag4 myeloma cells is “reduce cell viability and cell numbers”.

Source of the values: patent EP0873137B1, “COMPOSITIONS INCLUDING CALCIUM INFLUX BLOCKERS FOR INHIBITING CELL GROWTH” (The Wellesley Hospital Foundation, priority 1996, dated 1997).
